Source: US8754073B2, “Substituted piperazino-dihydrothienopyrimidines” (Boehringer Ingelheim International GmbH, priority 2007, dated 2014)
Counter-ions that a name gives are not always drawn.

What follows are compounds tested against PDE4B (Homo sapiens, UniProt Q07343) (assay: Scintillation Proximity Assay (SPA) of PDE4B enzyme activity ([H3]-cAMP cleavage)). Details: test substance 1 μM; one-hour incubation of [H3]-cAMP with PDE4B enzyme at 30° C.
Format: biochemical
How it was run: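 SPA read-out: [H3]-cAMP incubated with PDE4B in assay buffer for 1 h at 30 °C, with and without test compound at 1 μM. Reaction stopped by adding yttrium silicate beads that bind the [H3]-AMP product; after 45 min settling, scintillation counted. Value is % inhibition at 1 μM.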

Chain of PDE4B (Q07343 whole entry, species assumed): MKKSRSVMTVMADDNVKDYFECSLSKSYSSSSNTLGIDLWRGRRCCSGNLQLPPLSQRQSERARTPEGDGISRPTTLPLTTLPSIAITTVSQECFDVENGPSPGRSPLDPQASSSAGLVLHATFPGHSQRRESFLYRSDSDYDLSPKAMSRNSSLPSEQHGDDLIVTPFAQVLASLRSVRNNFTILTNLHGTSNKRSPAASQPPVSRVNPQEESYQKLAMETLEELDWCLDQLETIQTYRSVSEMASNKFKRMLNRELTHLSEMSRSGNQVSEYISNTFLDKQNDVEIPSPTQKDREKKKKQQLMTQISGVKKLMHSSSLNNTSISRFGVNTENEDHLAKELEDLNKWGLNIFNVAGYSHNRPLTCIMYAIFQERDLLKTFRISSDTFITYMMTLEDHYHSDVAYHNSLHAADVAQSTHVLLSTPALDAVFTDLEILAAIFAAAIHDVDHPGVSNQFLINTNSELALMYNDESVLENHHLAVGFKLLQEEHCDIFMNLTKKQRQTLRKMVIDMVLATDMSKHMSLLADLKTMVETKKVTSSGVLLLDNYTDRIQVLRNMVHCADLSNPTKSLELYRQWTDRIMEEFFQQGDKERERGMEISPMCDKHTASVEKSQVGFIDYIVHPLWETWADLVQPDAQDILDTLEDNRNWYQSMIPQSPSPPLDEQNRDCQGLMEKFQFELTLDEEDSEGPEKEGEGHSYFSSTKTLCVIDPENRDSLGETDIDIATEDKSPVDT

Row | SMILES | inhibition at 1 µM [%]
1 | [O-][S+]1CCc2nc(N3CCC(c4ccc(C(F)(F)F)cc4)CC3)nc(NC3(CO)CC3)c21 (centres unmarked) [Example 95, (1-{5-Oxo-2-[4-(4-Trifluoromethylphenyl)-Piperidin-1-Yl]-6,7-Dihydro-5H-5λ^4-Thieno[3,2-d]Pyrimidin-4-Ylamino}-Cyclopropyl)-Methanol] | 93
2 | [O-][S+]1CCc2nc(N3CCC(c4nnc5ccccn45)CC3)nc(NC3(CO)CC3)c21 (centres unmarked) [Example 108] | 88
3 | [O-][S+]1CCc2nc(N3CCC(c4nc(-c5ccncc5)no4)CC3)nc(Nc3cccc(F)c3)c21 (centres unmarked) [Example 147, (3-Fluorophenyl)-{5-Oxo-2-[4-(3-Pyridin-4-Yl-[1,2,4]Oxadiazol-5-Yl)-Piperidin-1-Yl]-6,7-Dihydro-5H-5λ^4-Thieno[3,2-d]Pyrimidin-4-Yl}-Amine Trifluoroacetate] | 95
4 | [O-][S+]1CCc2nc(N3CCC(c4cc5ccccc5o4)CC3)nc(Nc3cccc(F)c3)c21 (centres unmarked) [Example 141] | 97
5 | [O-][S+]1CCc2nc(N3CCC(c4nnc(-c5ccc(F)cc5)o4)CC3)nc(Nc3cccc(F)c3)c21 (centres unmarked) [Example 143] | 95
6 | CC(C)[C@H](CO)Nc1nc(N2CCC(c3ccc4ccccc4c3)CC2)nc2c1[S+]([O-])CC2 (some centres unmarked) [Example 158] | 94
7 | CC(C)c1noc(C2CCN(c3nc4c(c(Nc5cccc(F)c5)n3)[S+]([O-])CC4)CC2)n1 (centres unmarked) [Example 144] | 94
8 | CC(C)c1noc(C2CCN(c3nc4c(c(NC5(CO)CC5)n3)[S+]([O-])CC4)CC2)n1 (centres unmarked) [Example 113] | 92
9 | [O-][S+]1CCc2nc(N3CCC(c4ccc(F)cc4F)CC3)nc(NC3CCOCC3)c21 (centres unmarked) [Example 90, {2-[4-(2,4-Difluorophenyl)-Piperidin-1-Yl]-5-Oxo-6,7-Dihydro-5H-5λ^4-Thieno[3,2-d]Pyrimidin-4-Yl}-(Tetrahydropyran-4-Yl)-Amine] | 92
10 | O=S1(=O)CCc2nc(N3CCC(c4ccc(Cl)cc4)CC3)nc(NC3(CO)CC3)c21 [Example 333, (1-{2-[4-(4-chlorophenyl)-piperidin-1-yl]-5.5-dioxo-6,7-dihydro-5H-5λ^6-thieno[3,2-d]pyrimidin-4-ylamino}-cyclopropyl)-methanol] | 56
11 | [O-][S+]1CCc2nc(N3CCC(c4cc5ccccc5o4)CC3)nc(NC3(CO)CC3)c21 (centres unmarked) [Example 110] | 97
12 | CN1C[C@@H](Nc2nc(N3CCC4(CC3)NC(=O)Nc3ccccc34)nc3c2[S+]([O-])CC3)CCC1=O (some centres unmarked) [Example 51] | 83
13 | CC(C)[C@H](CO)Nc1nc(N2CCC(O)(c3cc(F)cc(F)c3)CC2)nc2c1[S+]([O-])CC2 (some centres unmarked) [Example 18] | 92
14 | [O-][S+]1CCc2nc(N3CCC(c4cc(Cl)cc(Cl)c4)CC3)nc(NC3(CO)CC3)c21 (centres unmarked) [Example 91, (1-{2-[4-(3,5-Dichlorophenyl)-Piperidin-1-Yl]-5-Oxo-6,7-Dihydro-5H-5λ^4-Thieno[3,2-d]Pyrimidin-4-Ylamino}-Cyclopropyl)-Methanol] | 94
15 | N#Cc1cccc(C2CCN(c3nc4c(c(Nc5cccc(F)c5)n3)[S+]([O-])CC4)CC2)c1 (centres unmarked) [Example 138] | 96
16 | [O-][S+]1CCc2nc(N3CCC(c4noc5cc(F)ccc45)CC3)nc(NC3(CO)CC3)c21 (centres unmarked) [Example 105] | 95
17 | COc1ccc(C2CCN(c3nc4c(c(Nc5cccc(F)c5)n3)[S+]([O-])CC4)CC2)cc1 (centres unmarked) [Example 133] | 95
18 | [O-][S+]1CCc2nc(N3CCC(c4ccc(Cl)cc4)CC3)nc(NC3CCOCC3)c21 (centres unmarked) [Example 6, {2-[4-(4-chlorophenyl)-piperidin-1-yl]-5-oxo-6,7-dihydro-5H-5λ^4-thieno[3,2-d]pyrimidin-4-yl}-(tetrahydropyran-4-yl)-amine] | 94
19 | [O-][S+]1CCc2nc(N3CCC(c4ccncc4)CC3)nc(Nc3cccc(F)c3)c21 (centres unmarked) [Example 78, (3-Fluorophenyl)-[5-Oxo-2-(3.4.5.6-Tetrahydro-2H-[4,4′]Bipyridinyl-1-Yl)-6,7-Dihydro-5H-5λ^4-Thieno[3,2-d]Pyrimidin-4-Yl]-Amine Trifluoroacetate] | 96
20 | CC(C)[C@H](CO)Nc1nc(N2CCC(c3cc4ccccc4o3)CC2)nc2c1[S+]([O-])CC2 (some centres unmarked) [Example 157] | 96
21 | [O-][S+]1CCc2nc(N3CCC4(CC3)OCc3ccccc34)nc(NC3(CO)CC3)c21 (centres unmarked) [Example 109] | 75
22 | CC(C)[C@H](CO)Nc1nc(N2CCC(c3ccncc3)CC2)nc2c1[S+]([O-])CC2 (stereo partly drawn) [Example 19, (R)-3-Methyl-2-[5-Oxo-2-(3.4.5.6-Tetrahydro-2H-[4,4′]Bipyridinyl-1-Yl)-6,7-Dihydro-5H-5λ^4-Thieno[3,2-d]Pyrimidin-4-Ylamino]-Butan-1-Ol] | 83
23 | CS(=O)(=O)N1CC2(CCN(c3nc4c(c(NC5CCOCC5)n3)[S+]([O-])CC4)CC2)c2ccccc21 (centres unmarked) [Example 59] | 90
24 | CN1C[C@@H](Nc2nc(N3CCC(C#N)(c4ccccc4)CC3)nc3c2[S+]([O-])CC3)CCC1=O (stereo partly drawn) [Example 55, 1-[4-((S)-1-Methyl-6-Oxopiperidin-3-Ylamino)-5-Oxo-6,7-Dihydro-5H-5λ^4-Thieno[3,2-d]Pyrimidine-2-Yl]-4-Phenylpiperidine-4-Carbonitrile] | 96
25 | CC(C)[C@H](CO)Nc1nc(N2CCC(c3noc4ccccc34)CC2)nc2c1[S+]([O-])CC2 (stereo partly drawn) [Example 16, (R)-2-[2-(4-Benzo[d]Isoxazol-3-Yl-Piperidin-1-Yl)-5-Oxo-6,7-Dihydro-5H-5λ^4-Thieno[3,2-d]Pyrimidin-4-Ylamino]-3-Methylbutan-1-Ol] | 96

Same assay, conditions: test substance 1 μM; one-hour incubation with [H3]-cAMP at 30° C.

Row | SMILES | inhibition at 1 µM [%]
26 | Cc1nn(C)cc1CNC(=O)c1ccc(OC2CCN(c3nc4c(c(NC5CCOCC5)n3)[S+]([O-])CC4)CC2)cc1 (centres unmarked) [Example 263] | 94
27 | CC(C)[C@H](CO)Nc1nc(N2CCC(O)(c3ccc(Cl)cc3)CC2)nc2c1[S+]([O-])CC2 (some centres unmarked) [Example 296] | 81
28 | [O-][S+]1CCc2nc(N3CCC(c4ccccc4)CC3)nc(NC3(CO)CC3)c21 (centres unmarked) [Example 164] | 92
29 | CN1C[C@@H](Nc2nc(N3CCC(c4cc5ccccc5o4)CC3)nc3c2[S+]([O-])CC3)CCC1=O (some centres unmarked) [Example 187] | 98
30 | CC(C)C(=O)N1CCc2ccc(OC3CCN(c4nc5c(c(NC6CCOCC6)n4)[S+]([O-])CC5)CC3)cc2CC1 (centres unmarked) [Example 215] | 79
31 | [O-][S+]1CCc2nc(N3CCC(Oc4ccc(F)cc4)CC3)nc(NC3(CO)CC3)c21 (centres unmarked) [Example 167] | 91
32 | [O-][S+]1CCc2nc(N3CCC(O)(c4ccc(Cl)cc4)CC3)nc(NC3(CO)CC3)c21 (centres unmarked) [Example 289] | 81
33 | CN1CCC(N(C)C(=O)c2ccc(C3CCN(c4nc5c(c(NC6CCOCC6)n4)[S+]([O-])CC5)CC3)cc2)CC1 (centres unmarked) [Example 228] | 94
34 | COCC(=O)NCC1(c2ccccc2)CCN(c2nc3c(c(NC4(CO)CC4)n2)[S+]([O-])CC3)CC1 (centres unmarked) [Example 216] | 80
35 | [O-][S+]1CCc2nc(N3CCC(c4nc5c(o4)CCCC5)CC3)nc(NC3(CO)CC3)c21 (centres unmarked) [Example 328] | 93
36 | CN1C[C@@H](Nc2nc(N3CCC(Oc4ccc(Cl)cc4)CC3)nc3c2[S+]([O-])CC3)CCC1=O (some centres unmarked) [Example 265] | 89
37 | O=C(c1ccc(OC2CCN(c3nc4c(c(NC5CCOCC5)n3)[S+]([O-])CC4)CC2)cc1)N1CCOCC1 (centres unmarked) [Example 240] | 94
38 | [O-][S+]1CCc2nc(N3CCC(O)(c4ccc(Cl)cc4)CC3)nc(Nc3cccc(F)c3)c21 (centres unmarked) [Example 290] | 86
39 | [O-][S+]1CCc2nc(N3CCC(c4n[nH]c5ccccc45)CC3)nc(NC3(CO)CC3)c21 (centres unmarked) [Example 220] | 93
40 | COCC1(c2ccc(Cl)cc2)CCN(c2nc3c(c(Nc4cccc(F)c4)n2)[S+]([O-])CC3)CC1 (centres unmarked) [Example 305] | 91
41 | [O-][S+]1CCc2nc(N3CCC(Oc4ccccc4Cl)CC3)nc(NC3CCOCC3)c21 (centres unmarked) [Example 179] | 75
42 | Cc1nn(C)cc1CNC(=O)c1ccc(C2CCN(c3nc4c(c(NC5CCOCC5)n3)[S+]([O-])CC4)CC2)cc1 (centres unmarked) [Example 262] | 94
43 | CN1C[C@@H](Nc2nc(N3CCC(c4cc[n+]([O-])cc4)CC3)nc3c2[S+]([O-])CC3)CCC1=O (some centres unmarked) [Example 196] | 94
44 | [O-][S+]1CCc2nc(N3CCC(Oc4ccc(F)cc4)CC3)nc(NC3CCOCC3)c21 (centres unmarked) [Example 166] | 92
45 | [O-][S+]1CCc2nc(N3CCC(c4nc5ccncc5[nH]4)CC3)nc(NC3CCOCC3)c21 (centres unmarked) [Example 213] | 88
46 | CN(CC1(c2ccccc2)CCN(c2nc3c(c(NC4(CO)CC4)n2)[S+]([O-])CC3)CC1)S(C)(=O)=O (centres unmarked) [Example 330] | 92
47 | CN1C[C@@H](Nc2nc(N3CCC(C)(c4nc5cc(F)ccc5o4)CC3)nc3c2[S+]([O-])CC3)CCC1=O (some centres unmarked) [Example 197, 5-{2-[4-(5-fluorobenzoxazol-2-yl)-4-methylpiperidin-1-yl]-5-oxo-6,7-dihydro-5H-5λ^4-thieno[3,2-d]pyrimidin-4-ylamino}-1-methylpiperidin-2-one] | 96
48 | CC(C)N1CCc2ccc(OC3CCN(c4nc5c(c(NC6CCOCC6)n4)[S+]([O-])CC5)CC3)cc2CC1 (centres unmarked) [Example 235] | 87
49 | [O-][S+]1CCc2nc(N3CCC(CO)(c4ccc(Cl)cc4)CC3)nc(NC3CCOCC3)c21 (centres unmarked) [Example 281] | 87
50 | COC1(c2ccc(Cl)cc2)CCN(c2nc3c(c(NC4(CO)CC4)n2)[S+]([O-])CC3)CC1 (centres unmarked) [Example 314] | 88
51 | N#Cc1ccc(OC2CCN(c3nc4c(c(NC5(CO)CC5)n3)[S+]([O-])CC4)CC2)cc1 (centres unmarked) [Example 322] | 91
52 | [O-][S+]1CCc2nc(N3CCC(c4nc(-c5ccccc5)c(-c5ccccc5)o4)CC3)nc(NC3(CO)CC3)c21 (centres unmarked) [Example 280] | 95
53 | [O-][S+]1CCc2nc(N3CCC(c4cc(-c5cccs5)[nH]n4)CC3)nc(NC3CCOCC3)c21 (centres unmarked) [Example 284] | 83
